Source: US10131652B2, “Pyrimidinyloxy benzene derivatives as herbicides” (E. I. DU PONT DE NEMOURS AND COMPANY, priority 2014, dated 2018)
Where two headings read alike, the source gives them in different places.

Tests used:
Type in all cases: in vivo
[1] = system: blackgrass (Alopecurus myosuroides); test: Test E pre-/postemergence plant response; conditions: scale 0 to 100, read-out: Plant response rating, Blackgrass; for pest or weed control at 16 g/ha: 16 g ai/ha; for pest or weed control at 31 g/ha: 31 g ai/ha; for pest or weed control at 62 g/ha: 62 g ai/ha; for pest or weed control at 125 g/ha: 125 g ai/ha
Outline: (§1)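 Visual scores on a 0–100 scale (100 = complete control) were assigned against untreated controls 7–21 days after treatment in a controlled environment. Compounds, formulated with solvent plus surfactant, were applied to pre-emergence silt-loam sowings or to 1- to 4-leaf plants (2–18 cm) in potting medium.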

[2] = system: bluegrass (annual bluegrass, Poa annua); test: Test E pre-/postemergence plant response; conditions: scale 0 to 100, read-out: Plant response rating, Bluegrass; for pest or weed control at 16 g/ha: 16 g ai/ha; for pest or weed control at 31 g/ha: 31 g ai/ha; for pest or weed control at 62 g/ha: 62 g ai/ha; for pest or weed control at 125 g/ha: 125 g ai/ha
Outline: as §1

[3] = system: canarygrass (Phalaris minor); test: Test E pre-/postemergence plant response; conditions: scale 0 to 100, read-out: Plant response rating, Canarygrass; for pest or weed control at 16 g/ha: 16 g ai/ha; for pest or weed control at 31 g/ha: 31 g ai/ha; for pest or weed control at 62 g/ha: 62 g ai/ha; for pest or weed control at 125 g/ha: 125 g ai/ha
Outline: as §1

[4] = system: spring barley (Hordeum vulgare); test: Test E pre-/postemergence plant response; conditions: for plant injury at 16 g/ha: 16 g ai/ha; for plant injury at 31 g/ha: 31 g ai/ha; for plant injury at 62 g/ha: 62 g ai/ha; for plant injury at 125 g/ha: 125 g ai/ha
Outline: as §1

[5] = system: winter wheat (Triticum aestivum); test: Test E pre-/postemergence plant response; conditions: scale 0 to 100, read-out: Plant response rating, Wheat, Winter; for plant injury at 16 g/ha: 16 g ai/ha; for plant injury at 31 g/ha: 31 g ai/ha; for plant injury at 62 g/ha: 62 g ai/ha; for plant injury at 125 g/ha: 125 g ai/ha
Outline: as §1

[6] = system: waterhemp_RES1 (ALS & Triazine resistant common waterhemp, Amaranthus rudis); test: Test F postemergence plant response; conditions: scale 0 to 100
Outline: (§2)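 Rated visually versus controls, 0 (no effect) to 100 (complete control), after 14–21 days in greenhouse. Compounds were sprayed postemergence on seedlings at 1- to 4-leaf stage, 2–18 cm tall.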

[7] = system: waterhemp_RES2 (ALS & HPPD resistant common waterhemp, Amaranthus rudis); test: Test F postemergence plant response; conditions: scale 0 to 100
Outline: as §2

Horseweed = test: Test F postemergence plant response; conditions: scale 0 to 100
[8] = post-emergence, Postemergence, scale 0 to 100, read-out: Plant response rating, Barley, Spring
[9] = post-emergence, Postemergence, scale 0 to 100 (0 no effect, 100 complete control), read-out: Plant response rating, Barley, Spring
[10] = pre-emergence, Preemergence, scale 0 to 100, read-out: Plant response rating, Barley, Spring

SMILES: Fc1cccc(Oc2ncc(Br)cn2)c1-c1cc(C(F)F)no1 [Compound 145, 5-bromo-2-[2-[3-(difluoromethyl)-5-isoxazolyl]-3-fluorophenoxy]pyrimidine]
- pest or weed control at 16 g/ha ([1]; post-emergence, Postemergence): 25%
- pest or weed control at 31 g/ha ([1]; post-emergence, Postemergence): 35%
- pest or weed control at 62 g/ha ([1]; post-emergence, Postemergence): 65%
- pest or weed control at 125 g/ha ([1]; post-emergence, Postemergence): 80%
- pest or weed control at 16 g/ha ([1]; pre-emergence, Preemergence): 10%
- pest or weed control at 31 g/ha ([1]; pre-emergence, Preemergence): 50%
- pest or weed control at 62 g/ha ([1]; pre-emergence, Preemergence): 60%
- pest or weed control at 125 g/ha ([1]; pre-emergence, Preemergence): 75%
- pest or weed control at 16 g/ha ([2]; post-emergence, Postemergence): 15%
- pest or weed control at 31 g/ha ([2]; post-emergence, Postemergence): 60%
- pest or weed control at 62 g/ha ([2]; post-emergence, Postemergence): 65%
- pest or weed control at 125 g/ha ([2]; post-emergence, Postemergence): 70%
- pest or weed control at 16 g/ha ([2]; pre-emergence, Preemergence): 0%
- pest or weed control at 31 g/ha ([2]; pre-emergence, Preemergence): 0%
- pest or weed control at 62 g/ha ([2]; pre-emergence, Preemergence): 10%
- pest or weed control at 125 g/ha ([2]; pre-emergence, Preemergence): 90%
- pest or weed control at 16 g/ha ([3]; post-emergence, Postemergence): 15%
- pest or weed control at 31 g/ha ([3]; post-emergence, Postemergence): 25%
- pest or weed control at 62 g/ha ([3]; post-emergence, Postemergence): 40%
- pest or weed control at 125 g/ha ([3]; post-emergence, Postemergence): 65%
- pest or weed control at 16 g/ha ([3]; pre-emergence, Preemergence): 40%
- pest or weed control at 31 g/ha ([3]; pre-emergence, Preemergence): 75%
- pest or weed control at 62 g/ha ([3]; pre-emergence, Preemergence): 100%
- pest or weed control at 125 g/ha ([3]; pre-emergence, Preemergence): 100%
- plant injury at 16 g/ha [4, 8]: 15%
- plant injury at 31 g/ha [4, 8]: 15%
- plant injury at 62 g/ha [4, 8]: 20%
- plant injury at 125 g/ha [4, 9]: 30%
- plant injury at 16 g/ha [4, 10]: 15%
- plant injury at 31 g/ha [4, 10]: 25%
- plant injury at 62 g/ha [4, 10]: 45%
- plant injury at 125 g/ha [4, 10]: 80%
- plant injury at 16 g/ha ([5]; post-emergence, Postemergence): 15%
- plant injury at 31 g/ha ([5]; post-emergence, Postemergence): 20%
- plant injury at 62 g/ha ([5]; post-emergence, Postemergence): 35%
- plant injury at 125 g/ha ([5]; post-emergence, Postemergence): 55%
- plant injury at 16 g/ha ([5]; pre-emergence, Preemergence): 0%
- plant injury at 62 g/ha ([5]; pre-emergence, Preemergence): 25%
- plant injury at 125 g/ha ([5]; pre-emergence, Preemergence): 75%
- Plant response rating, Waterhemp_RES1 ([6]; 16 g ai/ha Postemergence): 95
- Plant response rating, Waterhemp_RES1 ([6]; 31 g ai/ha Postemergence): 98
- Plant response rating, Waterhemp_RES1 ([6]; 62 g ai/ha Postemergence): 100
- Plant response rating, Waterhemp_RES1 ([6]; 125 g ai/ha Postemergence): 100
- Plant response rating, Waterhemp_RES2 ([7]; 16 g ai/ha Postemergence): 95
- Plant response rating, Waterhemp_RES2 ([7]; 31 g ai/ha Postemergence): 90
- Plant response rating, Waterhemp_RES2 ([7]; 62 g ai/ha Postemergence): 100
- Plant response rating, Waterhemp_RES2 ([7]; 125 g ai/ha Postemergence): 100
- Plant response rating, Horseweed (Horseweed; 16 g ai/ha Postemergence): 0
- Plant response rating, Horseweed (Horseweed; 31 g ai/ha Postemergence): 20
- Plant response rating, Horseweed (Horseweed; 62 g ai/ha Postemergence): 20
- Plant response rating, Horseweed (Horseweed; 125 g ai/ha Postemergence): 40

SMILES: Fc1cccc(Oc2ncc(Cl)cn2)c1-c1cc(C(F)F)no1 [Compound 144, 5-chloro-2-[2-[3-(difluoromethyl)-5-isoxazolyl]-3-fluorophenoxy]pyrimidine]
- pest or weed control at 16 g/ha ([1]; post-emergence, Postemergence): 25%
- pest or weed control at 31 g/ha ([1]; post-emergence, Postemergence): 50%
- pest or weed control at 62 g/ha ([1]; post-emergence, Postemergence): 60%
- pest or weed control at 125 g/ha ([1]; post-emergence, Postemergence): 85%
- pest or weed control at 16 g/ha ([1]; pre-emergence, Preemergence): 15%
- pest or weed control at 31 g/ha ([1]; pre-emergence, Preemergence): 75%
- pest or weed control at 62 g/ha ([1]; pre-emergence, Preemergence): 98%
- pest or weed control at 125 g/ha ([1]; pre-emergence, Preemergence): 100%
- pest or weed control at 16 g/ha ([2]; post-emergence, Postemergence): 25%
- pest or weed control at 31 g/ha ([2]; post-emergence, Postemergence): 45%
- pest or weed control at 62 g/ha ([2]; post-emergence, Postemergence): 55%
- pest or weed control at 125 g/ha ([2]; post-emergence, Postemergence): 65%
- pest or weed control at 16 g/ha ([2]; pre-emergence, Preemergence): 10%
- pest or weed control at 31 g/ha ([2]; pre-emergence, Preemergence): 15%
- pest or weed control at 62 g/ha ([2]; pre-emergence, Preemergence): 40%
- pest or weed control at 125 g/ha ([2]; pre-emergence, Preemergence): 85%
- pest or weed control at 16 g/ha ([3]; post-emergence, Postemergence): 35%
- pest or weed control at 31 g/ha ([3]; post-emergence, Postemergence): 60%
- pest or weed control at 62 g/ha ([3]; post-emergence, Postemergence): 65%
- pest or weed control at 125 g/ha ([3]; post-emergence, Postemergence): 85%
- pest or weed control at 16 g/ha ([3]; pre-emergence, Preemergence): 35%
- pest or weed control at 31 g/ha ([3]; pre-emergence, Preemergence): 80%
- pest or weed control at 62 g/ha ([3]; pre-emergence, Preemergence): 100%
- pest or weed control at 125 g/ha ([3]; pre-emergence, Preemergence): 100%
- plant injury at 16 g/ha [4, 8]: 15%
- plant injury at 31 g/ha [4, 8]: 25%
- plant injury at 62 g/ha [4, 8]: 35%
- plant injury at 125 g/ha [4, 9]: 45%
- plant injury at 16 g/ha [4, 10]: 10%
- plant injury at 31 g/ha [4, 10]: 25%
- plant injury at 62 g/ha [4, 10]: 45%
- plant injury at 125 g/ha [4, 10]: 65%
- plant injury at 16 g/ha ([5]; post-emergence, Postemergence): 20%
- plant injury at 31 g/ha ([5]; post-emergence, Postemergence): 30%
- plant injury at 62 g/ha ([5]; post-emergence, Postemergence): 35%
- plant injury at 125 g/ha ([5]; post-emergence, Postemergence): 70%
- plant injury at 16 g/ha ([5]; pre-emergence, Preemergence): 0%
- plant injury at 62 g/ha ([5]; pre-emergence, Preemergence): 25%
- plant injury at 125 g/ha ([5]; pre-emergence, Preemergence): 35%
- Plant response rating, Waterhemp_RES1 ([6]; 16 g ai/ha Postemergence): 90
- Plant response rating, Waterhemp_RES1 ([6]; 31 g ai/ha Postemergence): 95
- Plant response rating, Waterhemp_RES1 ([6]; 62 g ai/ha Postemergence): 100
- Plant response rating, Waterhemp_RES1 ([6]; 125 g ai/ha Postemergence): 100
- Plant response rating, Waterhemp_RES2 ([7]; 16 g ai/ha Postemergence): 98
- Plant response rating, Waterhemp_RES2 ([7]; 31 g ai/ha Postemergence): 100
- Plant response rating, Waterhemp_RES2 ([7]; 62 g ai/ha Postemergence): 100
- Plant response rating, Waterhemp_RES2 ([7]; 125 g ai/ha Postemergence): 100
- Plant response rating, Horseweed (Horseweed; 16 g ai/ha Postemergence): 0
- Plant response rating, Horseweed (Horseweed; 31 g ai/ha Postemergence): 0
- Plant response rating, Horseweed (Horseweed; 62 g ai/ha Postemergence): 10
- Plant response rating, Horseweed (Horseweed; 125 g ai/ha Postemergence): 25
